From patent US20130149287A1, “Corticogenesis of Human Pluripotent Cells” (Cambridge Enterprise Limited, priority 2010, published 2013)
Entries after “also recorded” stand apart in the source; their conditions may differ.

How the values were obtained:
Format in all cases: cell-based, human
cortical rosettes = assay: Regional identity of early-stage cortical rosettes after hedgehog signalling agonist treatment
[1] = system: voltage-gated potassium channels; assay: Whole-cell patch-clamp recording of voltage-gated potassium currents in PSC-derived cortical neurons; settings: step depolarizations from holding potential -80 mV to +40
[2] = system: hESC and hiPSC cell lines; assay: Efficiency of cortical induction by percentage of Pax6-expressing cells, with or without retinoids; settings: retinol acetate and all-trans retinol included together, with dual SMAD inhibition; two hESC and four iPSC lines
Method: hESCs or iPSCs were isolated from MEFs following dissociation to single cells with Accutase (Innovative Cell Technologies) by a 1 hr pre-plate on gelatin-coated dishes in hESC medium supplemented with 10 ng/ml FGF2 and 10 μM ROCK inhibitor (Calbiochem). The non-adherent pluripotent stem cells were harvested and plated on Matrigel (BD) coated 12-well plates in MEF-conditioned hESC medium with 10 ng/ml FGF2. Once the cell culture reached 95% confluence, neural induction was initiated by changing the culture medium to a culture medium that supports neural induction, neurogenesis and neuronal differentiation (referred to as 3N medium), a 1:1 mixture of N2- and B27-containing media. N2 medium: DMEM/F12, N2 (GIBCO), 5 μg/ml Insulin, 1 mM L-Glutamine, 100 μm non-essential amino acids, 100 μM 2-mercaptoethanol, 50 U/ml Penicillin and […] Streptomycin; B27 medium: Neurobasal (Invitrogen), B27 with vitamin A (GIBCO), 200 mM Glutamine, 50 U/ml Penicillin and […] Streptomycin. […] Cells were maintained in this medium for 8-11 days, during which time the efficiency of neural induction was monitored by the appearance of cells with characteristic neuroepithelial cell morphology. […] For quantifying numbers of cells expressing specific cortical neuronal markers, cell cultures were dissociated into single cells with Accutase and resuspended at a density of 100,000 cells/ml. […]

AMPA receptor = assay: Whole cell patch-clamp recording of miniature excitatory post-synaptic currents (mEPSCs) in hESC/hiPSC-derived cortical neurons; settings: hESC- and hiPSC-derived cortical neurons, cultures between days 45 and 100
Description: […] Borosilicate glass electrodes (resistance 6-10 MΩ) were filled with an intracellular solution containing (in mM): 135 K-Gluconate, 7 NaCl, 10 Hepes, 2 Na2ATP, 0.3 Na2GTP, 2 MgCl2. Cells were viewed using a BW50WI microscope (Olympus) with infrared DIC optics. Recordings were made with a Multiclamp 700 A amplifier (Molecular Devices). Signals were filtered at 4 kHz, sampled at 20 kHz with 16-bit resolution, and analysed using Matlab (MathWorks).

[3] = system: voltage-gated sodium channels
gamma-secretase complex = assay: Sandwich ELISA of secreted Aβ40 and Aβ42 in DS cortical neuron culture supernatant under gamma-secretase inhibition; settings: DS cortical neurons
Method: Quantification of secreted Aβ40 and Aβ42 was carried out by sandwich ELISA (Invitrogen) of 50 μl of cell culture supernatant from cultures of DS, iPS control and H9 hES cortical neurons. For quantification of water-soluble and insoluble Aβ peptides, water- and formic acid-soluble protein fractions from whole cell extracts of cortical cultures were prepared and levels of each peptide measured by ELISA (Invitrogen). Inhibition of gamma-secretase was carried out in DS cortical cultures by addition of DAPT (Calbiochem) every 48 hours from day 50 of differentiation onwards.

With `c1ccc2c(Oc3nc(Nc4ccc(N5CCOCC5)cc4)c4ncn(C5CCCCC5)c4n3)cccc2c1` [purapomorphine] the “effect on regional identity of cortical rosettes” value (cortical rosettes) was “ventralises the rosettes, resulting in the genesis of GAD67+ GABAergic interneurons”.
With `Nc1ccncc1` [4-AP, 4-aminopyridine] the “voltage-gated outward potassium current” value [1] was “blocks a fast-activating transient fraction of outward K current; also recorded: a transient component of which was blocked”.
With `CC1=C(/C=C/C(C)=C/C=C/C(C)=C/CO)C(C)(C)CCC1` [all-trans retinol] the “cortical neural induction, Pax6 expression” value [2] was “robust, efficient differentiation of all lines to cortical neural stem/progenitor cells, with almost all cells expressing Pax6”.
For retinol acetate, the “cortical neural induction, Pax6 expression” value [2] was “robust, efficient differentiation of all lines to cortical neural stem/progenitor cells, with almost all cells expressing Pax6”.
For `N#Cc1cc2[nH]c(=O)c(=O)[nH]c2cc1[N+](=O)[O-]` [CNQX], the “appearance of mEPSCs” value (AMPA receptor) was “blocked the appearance of mEPSCs”.
For `NC1=N[C@H](O)[C@H]2[C@H]3O[C@]4(O)O[C@@H]([C@@H](O)[C@@]2(N1)[C@@H]4O)[C@]3(O)CO` [TTX, tetrodotoxin], the “fast-activating and inactivating inward voltage-gated sodium currents” value [3] was “completely blocked”.
`C[C@H](NC(=O)Cc1cc(F)cc(F)c1)C(=O)N[C@H](C(=O)OC(C)(C)C)c1ccccc1` [DAPT] was tested, and the “production/secretion of both Aβ peptides” value (gamma-secretase complex; longer term 21 day gamma-secretase inhibition) was “undetectable levels” and the “production of Aβ40 and Aβ42 (secreted)” value (gamma-secretase complex; short-term 4 day gamma-secretase inhibition) was “reduces production of both Aβ40 and Aβ42”.
